The source made the active and inactive calls. The calls are words filed in the database; no cut-off is given here.
Experiments:
[1] = target: T1, Progesterone receptor (Homo sapiens, UniProt P06401); assay: (§1) Inhibition of progesterone receptor expressed in CHO cells by luciferase assay; type: cell-based
T1 sequence (P06401 whole entry): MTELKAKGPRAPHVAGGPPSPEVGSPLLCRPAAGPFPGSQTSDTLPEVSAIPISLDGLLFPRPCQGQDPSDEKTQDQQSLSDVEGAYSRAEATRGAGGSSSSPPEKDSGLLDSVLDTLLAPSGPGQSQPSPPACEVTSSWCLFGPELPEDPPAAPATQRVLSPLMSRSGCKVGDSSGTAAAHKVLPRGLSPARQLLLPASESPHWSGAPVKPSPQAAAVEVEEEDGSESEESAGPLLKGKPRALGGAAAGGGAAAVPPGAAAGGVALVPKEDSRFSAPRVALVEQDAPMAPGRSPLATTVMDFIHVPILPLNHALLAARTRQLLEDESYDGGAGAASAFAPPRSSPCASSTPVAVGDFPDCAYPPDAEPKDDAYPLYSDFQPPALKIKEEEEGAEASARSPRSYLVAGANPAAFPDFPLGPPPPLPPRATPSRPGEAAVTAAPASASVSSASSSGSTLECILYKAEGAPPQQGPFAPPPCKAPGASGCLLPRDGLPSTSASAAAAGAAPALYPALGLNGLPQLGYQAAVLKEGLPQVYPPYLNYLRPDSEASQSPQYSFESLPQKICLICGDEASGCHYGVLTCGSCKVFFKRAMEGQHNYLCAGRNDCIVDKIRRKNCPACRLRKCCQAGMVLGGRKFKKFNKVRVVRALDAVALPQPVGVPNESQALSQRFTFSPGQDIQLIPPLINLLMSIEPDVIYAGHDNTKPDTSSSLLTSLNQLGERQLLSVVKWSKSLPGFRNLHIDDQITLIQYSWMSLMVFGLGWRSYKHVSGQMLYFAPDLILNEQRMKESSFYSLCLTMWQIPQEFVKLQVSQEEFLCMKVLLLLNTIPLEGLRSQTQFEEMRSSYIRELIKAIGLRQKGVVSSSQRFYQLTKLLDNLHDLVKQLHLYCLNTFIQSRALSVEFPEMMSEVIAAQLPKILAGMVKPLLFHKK

[2] = target: T1, Progesterone receptor; assay: (§2) Agonist activity at progesterone receptor expressed in CHO cells by luciferase assay; type: functional, cell-based
[3] = target: T2, Progesterone receptor (Homo sapiens) (UniProt P06401); assay: as §1; type: cell-based
T2 sequence (whole entry): T1 sequence (P06401 whole entry)

[4] = target: T2, Progesterone receptor (Homo sapiens); assay: as §2; type: functional, cell-based

Row | SMILES | IC50 [1] [nM] | EC50 [2] [nM] | Activity [3] | Activity [4]
1 | O=C(N[C@H]1CCCN2c3ccc(Cl)cc3Oc3ccccc3[C@H]12)C(F)(F)F | 2220 | 993 |  | 
2 | O=C(N[C@H]1CCCN2c3cc(Cl)c(Cl)cc3Oc3ccccc3[C@H]12)C(F)(F)F | 318 | 38 |  | 
3 | O=C(N[C@@H]1CCCN2c3cc(Cl)ccc3Oc3ccccc3[C@@H]12)C(F)(F)F (racemic) |  | 54 |  | 
4 | N[C@H]1CCCN2c3ccccc3Oc3ccccc3[C@H]12 |  |  | inactive | inactive
5 | CC(C)CN[C@H]1CCCN2c3cc(Cl)ccc3Oc3ccccc3[C@H]12 |  | 1340 |  | 
6 | CC(=O)N[C@H]1CCCN2c3cc(Cl)ccc3Oc3ccccc3[C@H]12 | 193 | 4450 |  | 
7 | FC(F)(F)C(=S)N[C@H]1CCCN2c3cc(Cl)ccc3Oc3ccccc3[C@H]12 |  | 1.3 |  | 
8 | C=Cc1cccc2c1N1CCC[C@H](NC(=O)C(F)(F)F)[C@H]1c1ccccc1O2 |  | 0.81 |  | 
9 | CN(C(=O)C(F)(F)F)[C@H]1CCCN2c3cc(Cl)ccc3Oc3ccccc3[C@H]12 |  | 450 |  | 
10 | O=C(N[C@H]1CCCN2c3c(ccc(Cl)c3Cl)Oc3ccccc3[C@H]12)C(F)(F)F |  | 1.6 |  | 
11 | N[C@H]1CCCN2c3cc(Cl)ccc3Oc3ccccc3[C@H]12 |  | 513 | inactive | 
12 | CCN[C@H]1CCCN2c3ccccc3Oc3ccccc3[C@H]12 |  |  | inactive | inactive
13 | O=C(N[C@H]1CCCN2c3cc(F)ccc3Oc3ccccc3[C@H]12)C(F)(F)F | 730 | 198 |  | 
14 | C=Cc1ccc2c(c1)N1CCC[C@H](NC(=O)C(F)(F)F)[C@H]1c1ccccc1O2 |  | > 1000 |  | 
15 | O=C(N[C@H]1CCCN2c3cc(Cl)ccc3Oc3ccccc3[C@H]12)C(F)(F)F | 4.3 | 3 |  | 
16 | N=C(N[C@H]1CCCN2c3cc(Cl)ccc3Oc3ccccc3[C@H]12)C(F)(F)F | 133 | 10.3 |  | 
17 | CC(=O)c1cccc2c1N1CCC[C@H](NC(=O)C(F)(F)F)[C@H]1c1ccccc1O2 |  | 0.96 |  | 

Further lines, with some results ahead:

Row | IC50 [1] [nM] | EC50 [2] [nM] | SMILES | Activity [3] | Activity [4]
18 |  | 258 | CC(=O)c1ccc2c(c1)N1CCC[C@H](NC(=O)C(F)(F)F)[C@H]1c1ccccc1O2 |  | 
19 |  | 9.8 | CN1c2ccccc2[C@@H]2[C@@H](NC(=O)C(F)(F)F)CCCN2c2cc(Cl)ccc21 |  | 
20 |  | 2.8 | O=C(N[C@H]1CCCN2c3cc(Cl)ccc3Sc3ccccc3[C@H]12)C(F)(F)F |  | 
21 | 43 | 10.6 | O=C(NC1CCCN2c3cc(Cl)ccc3Oc3ccccc3C12)C(F)(F)F (racemic) |  | 
22 |  | 598 | O=C(N[C@H]1CCCN2c3cc(Cl)ccc3Oc3ccccc3[C@H]12)OCCl |  | 
23 |  | 19 | O=C(N[C@H]1CCCN2c3c(Cl)cccc3Oc3ccccc3[C@H]12)C(F)(F)F |  | 
24 | 314 |  | CC(C)CNC(=S)N[C@H]1CCCN2c3cc(Cl)ccc3Oc3ccccc3[C@H]12 |  | inactive
25 | 26 | 2 | O=C(N[C@H]1CCCN2c3cc(Cl)ccc3Cc3ccccc3[C@H]12)C(F)(F)F |  | 
26 |  | 222 | O=C(N[C@H]1CCCN2c3ccccc3Oc3ccccc3[C@H]12)C(F)(F)F |  | 
